Laboratory results from ChEMBL document CHEMBL1201862, “PubChem BioAssay data set” (2004).
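Results reflect a 48-hour exposure of cells in 96-well plates to compound at five concentrations. The concentration for 50% growth inhibition is given as GI50.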 The source made the active and inactive calls. Rule as the data show it: active = GI50 up to about 1.1 µM and inactive = higher.

Experiments:
Experiment in all cases: NCI anticancer screen, dose series, 48 h
[1] = tested on: BT-549
[2] = tested on: COLO 205
[3] = tested on: HCC 2998
[4] = tested on: HCT-116
[5] = tested on: HCT-15
[6] = tested on: HL-60
[7] = tested on: HOP-92
[8] = tested on: Hs-578T
[9] = tested on: K562
[10] = tested on: MDA-MB-231
[11] = tested on: Malme-3M
[12] = tested on: NCI-H226
[13] = tested on: NCI-H522
[14] = tested on: OVCAR-3
[15] = tested on: OVCAR-5
[16] = tested on: PC-3
[17] = tested on: RPMI-8226
[18] = tested on: SF-268
[19] = tested on: SK-MEL-2
[20] = tested on: SNB-75

SMILES | GI50 [1] | GI50 [2] | GI50 [3] | GI50 [4] | GI50 [5] [µM] | GI50 [6] | GI50 [7] | GI50 [8] | GI50 [9] | GI50 [10] | GI50 [11] | GI50 [12] | GI50 [13] | GI50 [14] | GI50 [15] | GI50 [16] | GI50 [17] | GI50 [18] | GI50 [19] | GI50 [20]
C=C1C(=O)O[C@H]2[C@H]([C@H](C)CCCC(C)=O)O[C@H]([C@@]3(C)CCC(=O)O3)C[C@@H]12 | 31.8 µM (inactive) | 40.6 µM (inactive) | 68.1 µM (inactive) | 22.3 µM (inactive) | 42 | 41.7 µM (inactive) | > 100 µM (inactive) | 29.2 µM (inactive) | 61.4 µM (inactive) | > 100 µM (inactive) | 18.4 µM (inactive) | 31.3 µM (inactive) | 26.4 µM (inactive) | 56.1 µM (inactive) | > 100 µM (inactive) | > 100 µM (inactive) | 31.8 µM (inactive) | 0.0316 µM (active) | > 100 µM (inactive) | > 100 µM (inactive)
N#Cc1c(C#N)c(SSc2c(C#N)c(C#N)c(N)n2-c2cccc3ccccc23)n(-c2cccc3ccccc23)c1N | 5.83 µM (inactive) | 3.67 µM (inactive) | 20.1 µM (inactive) | 2.37 µM (inactive) | 1.98 | 2.33 µM (inactive) | 4.71 µM (inactive) | 24.6 µM (inactive) | 3.51 µM (inactive) | 18.4 µM (inactive) | 1.85 µM (inactive) | 30.2 µM (inactive) | 1.5 µM (inactive) | 1.84 µM (inactive) | 24.2 µM (inactive) | 17.4 µM (inactive) | 2.76 µM (inactive) | 14.4 µM (inactive) | 15.3 µM (inactive) | 5.62 µM (inactive)
COc1cc(/C=C/C(=O)Oc2ccccc2)ccc1C(=O)O/C=C/c1ccccc1 | > 100 µM (inactive) | > 100 µM (inactive) | > 100 µM (inactive) | > 100 µM (inactive) | > 100 | > 100 µM (inactive) | > 100 µM (inactive) | > 100 µM (inactive) | > 100 µM (inactive) | > 100 µM (inactive) | > 100 µM (inactive) | > 100 µM (inactive) | > 100 µM (inactive) | > 31.6 µM (inactive) | > 100 µM (inactive) | > 100 µM (inactive) | > 100 µM (inactive) | > 100 µM (inactive) | > 100 µM (inactive) | > 100 µM (inactive)
CCCCCCCCCCCCCCCCNC(=O)/C(=C\c1ccc(Cl)c(Cl)c1)NC(=O)c1ccccc1 | > 100 µM (inactive) | 35.1 µM (inactive) | – | 37.9 µM (inactive) | 30.8 | 0.431 µM (active) | 14.2 µM (inactive) | 42.8 µM (inactive) | 22 µM (inactive) | 18 µM (inactive) | > 100 µM (inactive) | 23.6 µM (inactive) | 37.2 µM (inactive) | > 100 µM (inactive) | 47.2 µM (inactive) | 26.5 µM (inactive) | 24.4 µM (inactive) | 46.9 µM (inactive) | > 100 µM (inactive) | 16.7 µM (inactive)
CSc1ccc(-c2cc(-c3nc4ccccc4[nH]3)nc(N)c2C#N)cc1 | 20.6 µM (inactive) | 15.9 µM (inactive) | 17.1 µM (inactive) | 17.9 µM (inactive) | 20.2 | 20 µM (inactive) | 8.55 µM (inactive) | 24.7 µM (inactive) | 18.4 µM (inactive) | 17.1 µM (inactive) | 19.4 µM (inactive) | 21.3 µM (inactive) | 16.1 µM (inactive) | 16.5 µM (inactive) | 26.6 µM (inactive) | 20.7 µM (inactive) | 21.4 µM (inactive) | 17.3 µM (inactive) | 16.9 µM (inactive) | 23.1 µM (inactive)
O=C1NC(=O)[C@H]2C3C=CC([C@@H]12)[C@@H]1C(=O)NC(=O)[C@H]31 | > 100 µM (inactive) | > 100 µM (inactive) | > 100 µM (inactive) | > 100 µM (inactive) | > 100 | > 100 µM (inactive) | > 100 µM (inactive) | > 100 µM (inactive) | > 100 µM (inactive) | > 100 µM (inactive) | > 100 µM (inactive) | > 100 µM (inactive) | > 100 µM (inactive) | > 100 µM (inactive) | > 100 µM (inactive) | > 100 µM (inactive) | > 100 µM (inactive) | > 100 µM (inactive) | > 100 µM (inactive) | –
Cc1ccc(/N=N/C(=N\c2ccc(F)cc2)c2ccc(N(CCC#N)CCC#N)cc2)cc1 | 67.8 µM (inactive) | 64.4 µM (inactive) | 46.9 µM (inactive) | 74.1 µM (inactive) | > 100 | – | > 100 µM (inactive) | 53.7 µM (inactive) | > 100 µM (inactive) | > 100 µM (inactive) | – | > 100 µM (inactive) | 19.2 µM (inactive) | 86.3 µM (inactive) | > 100 µM (inactive) | 51.6 µM (inactive) | 74.6 µM (inactive) | > 100 µM (inactive) | 62.7 µM (inactive) | > 100 µM (inactive)
Nn1c(CCCCCCCCc2nnc(COc3ccccc3)n2N)nnc1COc1ccccc1 | > 100 µM (inactive) | > 100 µM (inactive) | > 100 µM (inactive) | > 100 µM (inactive) | > 100 | > 100 µM (inactive) | > 100 µM (inactive) | > 100 µM (inactive) | > 100 µM (inactive) | > 100 µM (inactive) | > 100 µM (inactive) | > 100 µM (inactive) | > 100 µM (inactive) | – | > 100 µM (inactive) | > 100 µM (inactive) | > 100 µM (inactive) | > 100 µM (inactive) | > 100 µM (inactive) | 88.1 µM (inactive)
Cn1cnc2c(NCc3ccccc3)nc(NCCO)nc21 [OLOMOUCINE] | 53.1 µM (inactive) | 30.1 µM (inactive) | 79.1 µM (inactive) | 34.8 µM (inactive) | 41.3 | 36.9 µM (inactive) | 61.2 µM (inactive) | 69.5 µM (inactive) | 107 µM (inactive) | 92.7 µM (inactive) | 98.2 µM (inactive) | 51.3 µM (inactive) | 51.4 µM (inactive) | – | 53 µM (inactive) | 98.2 µM (inactive) | 53.8 µM (inactive) | 49 µM (inactive) | 98.9 µM (inactive) | 21.3 µM (inactive)
O=[N+]([O-])C(=C(Nc1ccccc1)Nc1ccccc1)C(Cl)=C(Cl)Cl | 13.9 µM (inactive) | 17.5 µM (inactive) | 19.5 µM (inactive) | 12.5 µM (inactive) | 16.3 | – | 15.8 µM (inactive) | 21.7 µM (inactive) | 10.3 µM (inactive) | 17.3 µM (inactive) | 19.6 µM (inactive) | 19 µM (inactive) | 21.4 µM (inactive) | 16.5 µM (inactive) | 23.1 µM (inactive) | 15.2 µM (inactive) | 32.8 µM (inactive) | 18.7 µM (inactive) | 13.1 µM (inactive) | 19.1 µM (inactive)
O=C1O/C(=C\c2ccc(O)c(Br)c2)C(c2ccc(O)c(Cl)c2)=C1Br | 17.9 µM (inactive) | 18.1 µM (inactive) | 3.65 µM (inactive) | 13.7 µM (inactive) | 12.7 | 20 µM (inactive) | 15.4 µM (inactive) | 15.7 µM (inactive) | 17.3 µM (inactive) | 37.3 µM (inactive) | 17.9 µM (inactive) | – | 14.4 µM (inactive) | 17.8 µM (inactive) | 18.6 µM (inactive) | 11.7 µM (inactive) | 13.2 µM (inactive) | 14.3 µM (inactive) | 19.1 µM (inactive) | –
C/C(Nc1ccc(Cl)cc1)=C1/CCOC1=O | 52.7 µM (inactive) | 1.44 µM (inactive) | 5.68 µM (inactive) | – | > 100 | 1.15 µM (inactive) | > 100 µM (inactive) | > 100 µM (inactive) | 0.346 µM (active) | > 100 µM (inactive) | > 100 µM (inactive) | > 100 µM (inactive) | > 70 µM (inactive) | 46.8 µM (inactive) | > 20.5 µM (inactive) | > 43.7 µM (inactive) | 1.27 µM (inactive) | > 100 µM (inactive) | 12.7 µM (inactive) | > 67.8 µM (inactive)
N#CCN1CCN(CC#N)CCN(CC#N)CCN(CC#N)CC1 | > 100 µM (inactive) | > 100 µM (inactive) | 43.5 µM (inactive) | > 100 µM (inactive) | – | 33.3 µM (inactive) | > 100 µM (inactive) | > 100 µM (inactive) | > 100 µM (inactive) | > 100 µM (inactive) | > 100 µM (inactive) | > 100 µM (inactive) | > 100 µM (inactive) | > 100 µM (inactive) | > 100 µM (inactive) | 96.4 µM (inactive) | 38.3 µM (inactive) | > 100 µM (inactive) | > 100 µM (inactive) | > 100 µM (inactive)
N#CC(C#N)=Cc1ccc(C=C2SC3=C(SCCS3)S2)s1 | 1.28 µM (inactive) | 8.73 µM (inactive) | 15.8 µM (inactive) | 3.24 µM (inactive) | 0.818 | 0.286 µM (active) | 17.6 µM (inactive) | 41.6 µM (inactive) | – | 33.7 µM (inactive) | > 100 µM (inactive) | 2.27 µM (inactive) | 2.99 µM (inactive) | 2.5 µM (inactive) | 3.72 µM (inactive) | 6.04 µM (inactive) | 0.881 µM (active) | 40.4 µM (inactive) | > 100 µM (inactive) | 16.7 µM (inactive)
CC(C)=CC1C(C(=O)OCc2cc3c(cc2Cl)OCO3)C1(C)C (stereo not given) | 63 µM (inactive) | – | 17 µM (inactive) | 26.4 µM (inactive) | 30.1 | – | 31.7 µM (inactive) | 21.9 µM (inactive) | 20.1 µM (inactive) | 13.5 µM (inactive) | 15.5 µM (inactive) | 39.6 µM (inactive) | 15.1 µM (inactive) | 20.6 µM (inactive) | 39.2 µM (inactive) | 11.5 µM (inactive) | – | 39.7 µM (inactive) | 6.4 µM (inactive) | 26.9 µM (inactive)
